Patent US9926282B2, “Phthalazinones and isoquinolinones as rock inhibitors” (BRISTOL-MYERS SQUIBB COMPANY, priority 2013, dated 2018)

How the values were obtained:
ROCK1 = ROCK1 (Homo sapiens (Human), UniProt Q13464); assay: ROCK assay (LABCHIP peptide phosphorylation), ROCK1; format: biochemical; conditions: 5 μM ATP, 1.5 μM peptide substrate; read-out: ROCK1 IC50
ROCK2 = ROCK2 (Homo sapiens (Human), UniProt O75116); assay: ROCK assay (LABCHIP peptide phosphorylation), ROCK2; format: biochemical; conditions: 5 μM ATP, 1.5 μM peptide substrate
Sequence of ROCK2 (O75116 whole entry, species assumed): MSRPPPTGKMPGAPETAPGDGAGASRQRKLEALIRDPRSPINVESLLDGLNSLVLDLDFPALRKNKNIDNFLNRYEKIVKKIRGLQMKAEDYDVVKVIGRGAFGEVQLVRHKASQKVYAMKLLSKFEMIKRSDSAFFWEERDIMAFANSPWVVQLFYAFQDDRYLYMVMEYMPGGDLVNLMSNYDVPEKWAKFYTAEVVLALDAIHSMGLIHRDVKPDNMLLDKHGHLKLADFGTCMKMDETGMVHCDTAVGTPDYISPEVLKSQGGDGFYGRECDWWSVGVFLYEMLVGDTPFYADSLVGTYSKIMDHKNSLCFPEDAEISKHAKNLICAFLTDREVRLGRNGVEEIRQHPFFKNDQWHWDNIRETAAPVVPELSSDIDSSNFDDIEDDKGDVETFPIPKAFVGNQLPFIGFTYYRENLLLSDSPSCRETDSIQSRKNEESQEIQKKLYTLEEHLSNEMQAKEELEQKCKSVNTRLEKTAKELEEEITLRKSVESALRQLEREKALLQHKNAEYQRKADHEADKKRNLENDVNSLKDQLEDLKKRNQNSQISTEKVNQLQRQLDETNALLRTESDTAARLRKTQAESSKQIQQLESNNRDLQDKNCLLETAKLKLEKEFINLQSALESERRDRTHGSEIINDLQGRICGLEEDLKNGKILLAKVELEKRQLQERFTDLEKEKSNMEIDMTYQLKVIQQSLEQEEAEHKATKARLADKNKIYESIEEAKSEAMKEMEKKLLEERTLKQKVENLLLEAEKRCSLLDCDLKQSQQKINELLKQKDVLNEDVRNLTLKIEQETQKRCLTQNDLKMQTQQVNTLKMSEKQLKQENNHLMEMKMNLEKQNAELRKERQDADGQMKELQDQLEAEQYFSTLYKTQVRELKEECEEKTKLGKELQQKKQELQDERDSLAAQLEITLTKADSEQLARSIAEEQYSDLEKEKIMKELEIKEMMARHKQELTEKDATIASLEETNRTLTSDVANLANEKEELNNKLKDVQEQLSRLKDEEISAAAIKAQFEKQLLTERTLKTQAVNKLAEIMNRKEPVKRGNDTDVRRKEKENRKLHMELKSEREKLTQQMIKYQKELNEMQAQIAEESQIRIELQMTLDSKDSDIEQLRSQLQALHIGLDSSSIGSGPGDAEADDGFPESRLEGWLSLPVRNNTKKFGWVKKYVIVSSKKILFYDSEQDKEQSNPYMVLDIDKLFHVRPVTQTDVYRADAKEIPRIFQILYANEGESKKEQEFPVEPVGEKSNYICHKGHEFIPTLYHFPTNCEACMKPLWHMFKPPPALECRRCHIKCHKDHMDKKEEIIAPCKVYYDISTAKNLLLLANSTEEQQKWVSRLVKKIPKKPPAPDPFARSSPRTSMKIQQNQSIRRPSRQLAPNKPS

Sequence of ROCK1 (Q13464 whole entry, species assumed): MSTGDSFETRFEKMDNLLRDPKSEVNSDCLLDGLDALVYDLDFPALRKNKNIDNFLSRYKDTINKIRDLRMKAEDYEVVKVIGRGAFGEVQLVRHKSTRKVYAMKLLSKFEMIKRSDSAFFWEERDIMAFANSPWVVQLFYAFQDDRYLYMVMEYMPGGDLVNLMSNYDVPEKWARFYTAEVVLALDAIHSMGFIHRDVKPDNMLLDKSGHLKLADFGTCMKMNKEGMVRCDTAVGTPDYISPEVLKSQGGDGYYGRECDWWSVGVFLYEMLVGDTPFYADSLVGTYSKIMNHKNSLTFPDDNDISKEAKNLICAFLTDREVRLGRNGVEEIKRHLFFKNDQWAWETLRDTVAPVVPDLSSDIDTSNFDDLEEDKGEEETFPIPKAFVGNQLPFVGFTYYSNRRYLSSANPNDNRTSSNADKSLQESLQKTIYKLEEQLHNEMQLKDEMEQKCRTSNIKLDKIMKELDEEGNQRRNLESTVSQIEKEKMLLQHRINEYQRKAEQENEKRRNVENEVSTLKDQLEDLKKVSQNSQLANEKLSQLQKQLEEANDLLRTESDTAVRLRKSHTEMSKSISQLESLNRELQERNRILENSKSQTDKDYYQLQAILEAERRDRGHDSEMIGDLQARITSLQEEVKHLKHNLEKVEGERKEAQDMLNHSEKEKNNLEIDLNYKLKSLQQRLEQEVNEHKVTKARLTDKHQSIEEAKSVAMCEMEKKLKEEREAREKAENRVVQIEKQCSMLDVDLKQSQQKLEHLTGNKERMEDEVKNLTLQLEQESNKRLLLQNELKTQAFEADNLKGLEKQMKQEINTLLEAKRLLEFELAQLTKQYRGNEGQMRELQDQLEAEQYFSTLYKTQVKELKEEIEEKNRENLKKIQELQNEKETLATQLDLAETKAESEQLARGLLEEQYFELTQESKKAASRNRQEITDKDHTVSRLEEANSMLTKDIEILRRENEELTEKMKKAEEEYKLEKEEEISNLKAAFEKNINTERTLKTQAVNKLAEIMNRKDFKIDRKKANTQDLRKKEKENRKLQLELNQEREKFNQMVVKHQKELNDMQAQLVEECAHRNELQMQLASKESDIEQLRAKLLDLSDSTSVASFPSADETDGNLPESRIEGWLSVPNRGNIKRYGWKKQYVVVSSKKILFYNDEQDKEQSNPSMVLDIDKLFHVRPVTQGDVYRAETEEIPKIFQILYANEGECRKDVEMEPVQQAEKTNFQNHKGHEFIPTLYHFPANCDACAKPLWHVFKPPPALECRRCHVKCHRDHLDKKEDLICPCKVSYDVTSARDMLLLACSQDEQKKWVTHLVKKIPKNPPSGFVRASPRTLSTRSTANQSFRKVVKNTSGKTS

Compound | IC50 (ROCK1) [nM] | IC50 (ROCK2) [nM]
O=C(Nc1ccc(-c2n[nH]c(=O)c3ccccc23)cc1)c1cnn(C2CCOCC2)c1 [Example 384, N-(4-(4-Oxo-3,4-dihydrophthalazin-1-yl)phenyl)-1-(tetrahydro-2H-pyran-4-yl)-1H-pyrazole-4-carboxamide] | 101 to 1000 | 0.1 to 100
O=C(O)COc1ccc2c(c1)N(C(=O)Cc1ccc(-c3n[nH]c(=O)c4ccccc34)cc1)CC2 [Example 290, 2-((1-(2-(4-(4-Oxo-3,4-dihydrophthalazin-1-yl)phenyl)acetyl)indolin-6-yl)oxy)acetic Acid] | 0.1 to 100 | 0.1 to 100
O=C(Nc1ccc(-c2n[nH]c(=O)c3ccccc23)cc1)c1ccnn1-c1ccccc1 [Example 236, N-[4-(4-oxo-3,4-dihydrophthalazin-1-yl)phenyl]-1-phenyl-1H-pyrazole-5-carboxamide] | 101 to 1000 | 0.1 to 100
Cc1cc(NC(=O)Cc2ccc(-c3n[nH]c(=O)c4ccccc34)cc2)on1 [Example 26, N-(3-methyl-1,2-oxazol-5-yl)-2-[4-(4-oxo-3,4-dihydrophthalazin-1-yl)phenyl]acetamide] | 1000 to 50000 | 0.1 to 100
CN(C)c1ccc(C(=O)Nc2ccc3c(c2)N(C(=O)Cc2ccc(-c4n[nH]c(=O)c5ccccc45)cc2)CC3)cc1 [Example 300, 4-(Dimethylamino)-N-(1-(2-(4-(4-oxo-3,4-dihydrophthalazin-1-yl)phenyl)acetyl)indolin-6-yl)benzamide] | 0.1 to 100 | 0.1 to 100
Cn1nc(C(=O)Nc2ccc(-c3n[nH]c(=O)c4ccccc34)cc2)cc1-c1ccccc1 [Example 207, 1-methyl-N-[4-(4-oxo-3,4-dihydrophthalazin-1-yl)phenyl]-5-phenyl-1H-pyrazole-3-carboxamide] | 0.1 to 100 | 0.1 to 100
Cc1c(C(=O)Nc2ccc(-c3n[nH]c(=O)c4ccccc34)cc2)cnn1-c1ccccc1 [Example 189, 5-methyl-N-[4-(4-oxo-3,4-dihydrophthalazin-1-yl)phenyl]-1-phenyl-1H-pyrazole-4-carboxamide] | 0.1 to 100 | 0.1 to 100
CN1CCN(C(=O)c2ccc3c(c2)N(C(=O)Cc2ccc(-c4n[nH]c(=O)c5ccccc45)cc2)CC3)CC1 [Example 292, 4-(4-{2-[6-(4-methylpiperazine-1-carbonyl)-2,3-dihydro-1H-indol-1-yl]-2-oxoethyl}phenyl)-1,2-dihydrophthalazin-1-one] | 101 to 1000 | 0.1 to 100
CC(=O)N1CC(Cn2nc(C(=O)Nc3ccc(-c4n[nH]c(=O)c5ccccc45)c(Cl)c3)c3ccccc32)C1 [Example 329, 1-((1-Acetylazetidin-3-yl)methyl)-N-(3-chloro-4-(4-oxo-3,4-dihydrophthalazin-1-yl)phenyl)-1H-indazole-3-carboxamide] | 0.1 to 100 | 0.1 to 100
O=C(Nc1ccc(-c2n[nH]c(=O)c3ccccc23)c(CO)c1)c1nn(CC2CCOC2)c2cc(F)ccc12 (stereo not drawn) [Example 368, 6-Fluoro-N-(3-(hydroxymethyl)-4-(4-oxo-3,4-dihydrophthalazin-1-yl)phenyl)-1-((tetrahydrofuran-3-yl)methyl)-1H-indazole-3-carboxamide] | 1000 to 50000 | 0.1 to 100
CC1(C)CN(C(=O)Cc2ccc(-c3n[nH]c(=O)c4ccccc34)cc2)c2ccccc21 [Example 39, 4-{4-[2-(3,3-dimethyl-2,3-dihydro-1H-indol-1-yl)-2-oxoethyl]phenyl}-1,2-dihydrophthalazin-1-one] | 101 to 1000 | 0.1 to 100
O=C(Cc1ccc(-c2n[nH]c(=O)c3ccccc23)cc1)N1CCc2ccc(O[C@@H]3CCOC3)cc21 [Example 274, 4-[4-(2-oxo-2-{6-[(3R)-oxolan-3-yloxy]-2,3-dihydro-1H-indol-1-yl}ethyl)phenyl]-1,2-dihydrophthalazin-1-one] | 0.1 to 100 | 0.1 to 100
CC(C)(O)Cn1nc(C(=O)Nc2ccc(-c3n[nH]c(=O)c4ccccc34)cc2)c2ccc(F)cc21 [Example 158, 6-fluoro-1-(2-hydroxy-2-methylpropyl)-N-[4-(4-oxo-3,4-dihydrophthalazin-1-yl)phenyl]-1H-indazole-3-carboxamide] | 0.1 to 100 | 0.1 to 100
COc1cccc2cc(C(=O)Nc3ccc(-c4n[nH]c(=O)c5ccccc45)cc3)[nH]c12 [Example 129, 7-methoxy-N-[4-(4-oxo-3,4-dihydrophthalazin-1-yl)phenyl]-1H-indole-2-carboxamide] | 0.1 to 100 | 0.1 to 100
O=C(Nc1ccc(-c2n[nH]c(=O)c3ccccc23)cc1)c1cnn(C2C3CCC2CC3)c1 (stereo not drawn) [Example 392, 1-(Bicyclo[2.2.1]heptan-7-yl)-N-(4-(4-oxo-3,4-dihydrophthalazin-1-yl)phenyl)-1H-pyrazole-4-carboxamide] | 0.1 to 100 | 0.1 to 100
COC[C@@H]1CCCN1C(=O)Cc1ccc(-c2n[nH]c(=O)c3ccccc23)cc1 [Example 13, 4-(4-{2-[(2S)-2-(methoxymethyl)pyrrolidin-1-yl]-2-oxoethyl}phenyl)-1,2-dihydrophthalazin-1-one] | 1000 to 50000 | 1000 to 50000
O=C(Nc1ccc(-c2n[nH]c(=O)c3ccccc23)cc1)c1cnn(-c2ccccc2Cl)c1 [Example 220, 1-(2-chlorophenyl)-N-[4-(4-oxo-3,4-dihydrophthalazin-1-yl)phenyl]-1H-pyrazole-4-carboxamide] | 0.1 to 100 | 0.1 to 100

Compound | IC50 (ROCK1) [nM] | IC50 (ROCK2) [nM]
O=C(Cc1ccc(-c2n[nH]c(=O)c3ccccc23)cc1)N1Cc2ccc(F)cc2C1 [Example 2, 4-(4-(2-(5-Fluoroisoindolin-2-yl)-2-oxoethyl)phenyl)phthalazin-1 (2H)-one] | 101 to 1000 | 0.1 to 100
Cc1cc(NC(=O)c2c3ccccc3nn2CCN(C)C)ccc1-c1n[nH]c(=O)c2ccccc12 [Example 304, 2-[2-(dimethylamino)ethyl]-N-[3-methyl-4-(4-oxo-3,4-dihydrophthalazin-1-yl)phenyl]-2H-indazole-3-carboxamide] | 101 to 1000 | 0.1 to 100
COCC(O)COc1ccn2ncc(C(=O)Nc3ccc(-c4n[nH]c(=O)c5ccccc45)cc3)c2c1 (stereo not drawn) [Example 194, 5-(2-hydroxy-3-methoxypropoxy)-N-[4-(4-oxo-3,4-dihydrophthalazin-1-yl)phenyl]pyrazolo[1,5-a]pyridine-3-carboxamide] | 101 to 1000 | 0.1 to 100
CC1Cc2ccccc2N1C(=O)Cc1ccc(-c2n[nH]c(=O)c3ccccc23)cc1 (stereo not drawn) [Example 40, 4-{4-[2-(2-methyl-2,3-dihydro-1H-indol-1-yl)-2-oxoethyl]phenyl}-1,2-dihydrophthalazin-1-one] | 101 to 1000 | 0.1 to 100
CC(C)(O)CNC(=O)Cn1nc(C(=O)Nc2ccc(-c3n[nH]c(=O)c4ccccc34)cc2)c2ccccc21 [Example 334, 1-(2-((2-Hydroxy-2-methylpropyl)amino)-2-oxoethyl)-N-(4-(4-oxo-3,4-dihydrophthalazin-1-yl)phenyl)-1H-indazole-3-carboxamide] | 0.1 to 100 | 0.1 to 100
O=C(Cc1ccc(-c2n[nH]c(=O)c3ccccc23)cc1)Nc1nccs1 [Example 28, 2-[4-(4-oxo-3,4-dihydrophthalazin-1-yl)phenyl]-N-(1,3-thiazol-2-yl)acetamide] | 1000 to 50000 | 101 to 1000
O=C(Nc1ccc(-c2n[nH]c(=O)c3ccccc23)cc1)c1ccc(-n2ccnc2)cc1 [Example 65, 4-(1H-imidazol-1-yl)-N-[4-(4-oxo-3,4-dihydrophthalazin-1-yl)phenyl]benzamide] | 0.1 to 100 | 0.1 to 100
Cc1cc(NC(=O)c2cnn(-c3ccccc3)c2C)ccc1-c1n[nH]c(=O)c2ccccc12 [Example 394, 5-Methyl-N-(3-methyl-4-(4-oxo-3,4-dihydrophthalazin-1-yl)phenyl)-1-phenyl-1H-pyrazole-4-carboxamide] | 101 to 1000 | 0.1 to 100
Cn1c(C(=O)Nc2ccc(-c3c[nH]c(=O)c4ccccc34)cc2)cc2ccccc21 [Example 248, 1-Methyl-N-(4-(1-oxo-1,2-dihydroisoquinolin-4-yl)phenyl)-1H-indole-2-carboxamide] | 101 to 1000 | 0.1 to 100
COc1cc(-c2n[nH]c(=O)c3ccccc23)ccc1NC(=O)c1nn(CC2CCOC2)c2ccccc12 (stereo not drawn) [Example 352, N-(2-Methoxy-4-(4-oxo-3,4-dihydrophthalazin-1-yl)phenyl)-1-((tetrahydrofuran-3-yl)methyl)-1H-indazole-3-carboxamide] | 1000 to 50000 | 101 to 1000
COc1ccc2cc(C(=O)Nc3ccc(-c4n[nH]c(=O)c5ccccc45)cc3)n(C)c2c1 [Example 127, 6-methoxy-1-methyl-N-[4-(4-oxo-3,4-dihydrophthalazin-1-yl)phenyl]-1H-indole-2-carboxamide] | 0.1 to 100 | 0.1 to 100
CCn1ccc(C(=O)Nc2ccc(-c3n[nH]c(=O)c4ccccc34)cc2)n1 [Example 204, 1-ethyl-N-[4-(4-oxo-3,4-dihydrophthalazin-1-yl)phenyl]-1H-pyrazole-3-carboxamide] | 101 to 1000 | 0.1 to 100
CCCc1cc(C(=O)Nc2ccc(-c3n[nH]c(=O)c4ccccc34)cc2)nn1C [Example 229, 1-methyl-N-[4-(4-oxo-3,4-dihydrophthalazin-1-yl)phenyl]-5-propyl-1H-pyrazole-3-carboxamide] | 0.1 to 100 | 0.1 to 100
CN1CC(=O)c2c(C(=O)Nc3ccc(-c4n[nH]c(=O)c5ccccc45)cc3)coc2C1 [Example 111, 6-methyl-4-oxo-N-[4-(4-oxo-3,4-dihydrophthalazin-1-yl)phenyl]-4H,5H,6H,7H-furo[2,3-c]pyridine-3-carboxamide] | 101 to 1000 | 101 to 1000
CCOc1cc(NC(=O)c2nn(CC(C)(C)O)c3ccccc23)ccc1-c1n[nH]c(=O)c2ccccc12 [Example 346, N-(3-Ethoxy-4-(4-oxo-3,4-dihydrophthalazin-1-yl)phenyl)-1-(2-hydroxy-2-methylpropyl)-1H-indazole-3-carboxamide] | 1000 to 50000 | 101 to 1000
Cn1nc(C(=O)Nc2ccc(-c3n[nH]c(=O)c4ccccc34)cc2)c2ccccc21 [Example 98, 1-methyl-N-[4-(4-oxo-3,4-dihydrophthalazin-1-yl)phenyl]-1H-indazole-3-carboxamide] | 0.1 to 100 | 0.1 to 100
